Source: patent publication US20160058829A1, “ANTI-FIBROTIC PEPTIDES AND THEIR USE IN METHODS FOR TREATING DISEASES AND DISORDERS CHARACTERIZED BY FIBROSIS” (Thrasos Innovation, Inc., priority 2011, published 2016)
Positions of bridges follow the written chain, without caps; N, C: chain ends.

Assays:
[1] = test system: cisplatin-induced nephrotoxicity in rats; test: Cisplatin-induced nephrotoxicity in rats; format: in vivo; conditions: cisplatin plus THR-123 versus cisplatin alone
Description: FIG. 38 Tumor necrosis factor-a (TNF-a) production via p38 mitogen-activated protein kinase (MAPK) is one of the pivotal mechanisms in the development of AKI induced by a nephrotoxic agent, cisplatin (Ramesh, G and Reeves, W B. Am J Physiol Renal Physiol 289:F166-F174, 2005). Therefore THR-123 was further examined to determine if the compound is capable of inhibiting cisplatin-induced nephrotoxicity in animals. The upper right and left panels in the figure show Kidney sections immunostained for ICAM-1 expression and the lower right and left panels show immunostaining for the presence of macrophages. The kidney sections in the left column were treated with cisplatin alone and the right column panels were treated with cisplatin and THR-123. Arrows in the upper panel indicate ICAM-1 expression which was reduced by THR-123. Arrows in the lower panel indicate infiltration of macrophages as detected by Mac CD-68 staining, which was reduced by THR-123.

[2] = test system: mice with nephrotoxic serum nephritis; test: Nephrotoxic serum nephritis (NTN) in CD1 mice; format: in vivo
Description: FIG. 59A-FIG. 59M AA-123 Reverses Renal Fibrosis in Mice with Nephrotoxic Serum Nephritis. FIG. 59A-FIG. 59D. Representative Masson's trichrome staining picture of kidney sections from untreated control mice (FIG. 59A); 6 weeks NTN (FIG. 59B); 9 weeks post NTN (FIG. 59C); and 9 weeks NTN with THR-123 administered starting at 6 weeks NTN (FIG. 59D), Original magnification ×200. FIG. 59E-FIG. 59G. Morphometric analysis from control mice (0 weeks) (n=5), mice after 1 (n=6), 3 (n=8), and 6 weeks following induction of NTN (n=6), and mice at 9 weeks NTN with THR-123 administered starting 6 weeks NTN (THR-123 (6-9W) (n=6)), assessing percent of glomerulosclerosis score (FIG. 59E), tubular atrophy index (FIG. 59F), and fibrosis index (FIG. 59G). FIG. 59H. Blood Urea Nitrogen measurement for mice 6 weeks NTN (n=3), 9 weeks NTN (n=5), and 9 weeks NTN with THR-123 administered starting at 6 weeks NTN (n=5) FIG. 59I-FIG. 59L. E-cadherin/FSP1 immunolabeling of kidney from control untreated mice (FIG. 59I), 6 weeks NTN (FIG. 59J), 9 weeks NTN (FIG. 59K), and 9 weeks NTN with THR-123 administered starting at 6 weeks NTN (FIG. 59L). Representative results are shown. FIG. 59M. Percent of E-cadherin/FSP1 double positive tubule was assessed by counting the number of double-labeled tubules, 500 tubules per slide, 5 slides per experimental group. Data are expressed as mean±s.e.m. in the graph.
NTN is induced in C57BL6 mice by pre-immunizing with a subcutaneous injection of normal sheep IgG (200 μg) in complete Freund's adjuvant (day 1) followed by intravenous injection of nephrotoxic serum injection (50 μl, from day 5 to day 7). Mice were sacrificed at 1, 3, 6, 9 weeks after induction of NTN. Total RNA was isolated from the kidney by Trizol/Invitrogen PureLink RNA Mini Kit for RNA extraction. Ten nanogram of total RNA was used for generating complementary cDNA using the TaqMan One-Step RT-PCR Master Mix (Applied Biosystems, Foster City, Calif.). Quantitative PCR was performed to analyze the gene expression profile of BMP7, BMP receptors Alk2, Alk-3, Alk6 and BMPR II, and to BMP-binding proteins chordin, criml, fibrillinl, follistatin, KCP, USAG1, gremlin and noggin are analyzed (Table: Primer Sequences (below)) using ABIprism 7000 (Applied Biosystems).
NTN is induced in CD1 mice by the method described above. Six weeks after NTN induction, THR-123 (p.o. 5 mg/Kg/day) are started until 9 weeks. Mice are sacrificed at week 1, week 3, week 6 and week 9.
For the analysis of glomerulosclerosis, 20 glomeruli per each mouse were randomly picked and each glomerulus was evaluated according to the following scale: no sclerosis 0, 0 to ¼ of a glomerular surface area was sclerosed 1, ¼ to ½ was sclerosed 2, ½ to ¾ was sclerosed 3 and more than ¾ was sclerosed or with crescent 4. A glomerulosclerosis score was calculated as an arithmetic mean of these numbers for each mouse. The glomerulosclerosis scores from all mice were arbitrarily divided into 4 groups; that is no disease, mild, moderate and severe. The percentage of mice with these 4 groups was calculated.
For tubular atrophy score, ten 200× visual fields were randomly selected for each slide and tubular atrophy was assessed according to the following scale: no atrophy 0, 0 to ¼ of a visual field was occupied by atrophied tubules 1, ¼ to ½ 2, ½ to ¾ 3 and more than ¾ 4. A tubular atrophy score was then calculated as an arithmetic mean of these numbers per each mouse. The tubular atrophy scores from all mice were arbitrarily divided into 4 groups; that is no disease, mild, moderate and severe. The percentage of mice with these 4 groups was calculated and shown on the graph.
For the analysis of interstitial fibrosis, ten 200× visual fields were also selected randomly for each Masson trichrome stained kidney section and interstitial fibrosis was evaluated according to the following scale: no fibrosis 0, 0 to ¼ of a visual field was affected by interstitial fibrosis 1, ¼ to ½ 2, ½ to ¾ 3 and more than ¾ 4. […]

[3] = In vitro stability in rat blood, plasma and PBS-mannitol buffer (LC-MS-MS); format: in vitro ADME; conditions: 0.1 mg/mL, 37° C.
Protocol: FIG. 46 In vitro stability of THR-123. THR-123 was spiked into freshly harvested rat blood (male Sprague-Dawley, 0.35 kg BW) and plasma, and PBS-mannitol buffer solution at a final concentration of 0.1 mg/mL. Blood, plasma and buffer master tubes were incubated at 37° C. for up to 6 h and duplicate samples of 500 μl (blood) and 250 μl (plasma and […]) were collected for analysis at 0, 7.5, 15, 30, 60, 120, 240 and 360 min. Samples were analyzed for THR-123 using an LC-MS-MS method having a limit of detection of 1 μg/ml.
The stability of THR-123 in whole blood and plasma was tested in vitro. In PBS-mannitol buffer, THR-123 was stable for over 400 minutes (FIG. 46).

(H)-CYFDDSSNVLCKKYRS-(OH) (H-CYFDDSSNVLCKKYRS-OH; disulfide 1-11; SMILES CC(C)C[C@@H]1NC(=O)[C@H](C(C)C)NC(=O)[C@H](CC(N)=O)NC(=O)[C@H](CO)NC(=O)[C@H](CO)NC(=O)[C@H](CC(=O)O)NC(=O)[C@H](CC(=O)O)NC(=O)[C@H](Cc2ccccc2)NC(=O)[C@H](Cc2ccc(O)cc2)NC(=O)[C@@H](N)CSSC[C@@H](C(=O)N[C@@H](CCCCN)C(=O)N[C@@H](CCCCN)C(=O)N[C@@H](Cc2ccc(O)cc2)C(=O)N[C@@H](CCCNC(=N)N)C(=O)N[C@@H](CO)C(=O)O)NC1=O) [SEQ ID NO: 1]
ICAM-1 expression in kidney sections [1]: reduced | infiltration of macrophages (Mac CD-68 staining) [1]: reduced | glomerular lesion (sclerosis), tubular atrophy and fibrosis ([2]; THR-123 p.o. 5 mg/Kg/day from week 6 to 9): improved glomerular lesion (sclerosis) and tubular atrophy and fibrosis | Mac-1 positive macrophage accumulation ([2]; week 6 to 9 treatment): inhibited accumulation of macrophage | blood urea nitrogen ([2]; week 6 to 9 treatment): decreased | cells exhibiting an EMT program (FSP-1 and E-cadherin positive) ([2]; week 6 to 9 treatment): significantly decreased the number of cells exhibiting an EMT program | expression of fibronectin and type I collagen ([2]; week 6 to 9 treatment): decreased expression of matrix components such as fibronectin and type I collagen | phospho-smad1/5 accumulation ([2]; week 6 to 9 treatment): increased accumulation of phospho-Smad1/5 | half-life in rat plasma [3]: 5.97 h | half-life in rat whole blood [3]: 1.17 h
